Among the data in BindingDB's records for doi:10.1016/j.bmc.2019.01.012 (University of Education, 2019) are IC50 values, retold here.

For assay [1], the target named is Cholinesterase (Homo sapiens, UniProt P06276). Description: Inhibition of BuChE (unknown origin) using butyrylthiocholine bromide as substrate by Ellman method. A general note: In Ellman's method for cholinesterases, released thiocholine reacts with DTNB.
For assay [2], the target named is Acetylcholinesterase (Homo sapiens, UniProt P22303). Description: Inhibition of AChE (unknown origin) using […] as substrate by Ellman method.
Chain of Acetylcholinesterase (P22303 whole entry): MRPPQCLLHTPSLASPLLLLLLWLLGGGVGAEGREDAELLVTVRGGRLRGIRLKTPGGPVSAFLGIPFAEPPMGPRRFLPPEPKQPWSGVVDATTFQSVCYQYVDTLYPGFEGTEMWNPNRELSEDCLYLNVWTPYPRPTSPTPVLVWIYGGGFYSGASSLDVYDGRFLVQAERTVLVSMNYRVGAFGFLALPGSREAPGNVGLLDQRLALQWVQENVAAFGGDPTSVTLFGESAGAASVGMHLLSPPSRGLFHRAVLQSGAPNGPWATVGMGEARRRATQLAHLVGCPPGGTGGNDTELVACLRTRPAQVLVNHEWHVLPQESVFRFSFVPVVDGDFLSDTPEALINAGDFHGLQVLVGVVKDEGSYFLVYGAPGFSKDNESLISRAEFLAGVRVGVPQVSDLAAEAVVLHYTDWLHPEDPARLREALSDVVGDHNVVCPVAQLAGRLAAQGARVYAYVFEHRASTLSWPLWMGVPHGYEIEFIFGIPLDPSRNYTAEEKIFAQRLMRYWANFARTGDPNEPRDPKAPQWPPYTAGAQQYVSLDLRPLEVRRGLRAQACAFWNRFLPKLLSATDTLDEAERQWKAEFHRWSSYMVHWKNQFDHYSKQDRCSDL

Chain of Cholinesterase (P06276 whole entry): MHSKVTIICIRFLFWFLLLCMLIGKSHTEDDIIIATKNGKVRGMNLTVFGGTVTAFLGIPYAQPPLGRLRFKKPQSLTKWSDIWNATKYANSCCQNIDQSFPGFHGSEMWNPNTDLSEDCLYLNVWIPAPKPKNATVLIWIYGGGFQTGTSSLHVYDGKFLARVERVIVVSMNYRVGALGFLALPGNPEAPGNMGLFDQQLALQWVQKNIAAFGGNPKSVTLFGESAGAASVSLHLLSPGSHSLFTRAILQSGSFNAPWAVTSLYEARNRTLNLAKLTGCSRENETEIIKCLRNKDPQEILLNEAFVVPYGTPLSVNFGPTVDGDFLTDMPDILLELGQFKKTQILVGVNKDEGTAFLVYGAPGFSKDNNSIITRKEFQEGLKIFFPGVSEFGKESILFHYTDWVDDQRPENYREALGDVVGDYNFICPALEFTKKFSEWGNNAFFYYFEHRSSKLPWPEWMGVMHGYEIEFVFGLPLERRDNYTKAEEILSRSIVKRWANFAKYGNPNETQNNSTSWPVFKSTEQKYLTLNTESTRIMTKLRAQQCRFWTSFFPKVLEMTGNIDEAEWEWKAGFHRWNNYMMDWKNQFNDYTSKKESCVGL

For `CC(C)Cc1ccc(C(C)C(=O)NS(=O)(=O)c2ccc(N)cc2)cc1` (stereo not given), the IC50 in assay [1] is 214 µM; in assay [2], below 600 µM.
As to `CC(C)Cc1ccc([C@H](C)C(=O)O)cc1` [(RS)-ibuprofen], the 50% inhibitory concentration (IC50) was below 600 µM in assay [1] and 235 µM in assay [2].
In assay [1], `Nc1ccc(S(N)(=O)=O)cc1` [aromatic sulfonamide compound 5] returned an IC50 of 138 µM.

In general, IC50 refers to the concentration that inhibits the measured activity by half. Lower therefore signals higher potency.
